Patent US20160022733A1, “NOVEL FORMULA OF IRON BASED NANOCOMPOSITES FOR RAPID AND EFFICIENT TREATMENT OF IRON DEFICIENCY ANEMIA” (NANOTECH FOR PHOTOELECTRONICS RESEARCH, priority 2013, published 2016)

Test system: Life-threatening iron-deficiency anemic rats
Assay: Hemoglobin concentration after single oral dose in rats with induced life-threatening hemorrhagic anemia
Format: in vivo, Albino rats of the Wisconsin Holtzman strain
Conditions: Ferric Chloride given orally to anemic rats (group 4)
Protocol: Part II: Animal Trial Experimental Design • Five weeks old Albino rats of the Wisconsin Holtzman strain, weighing 150-160 g, were divided into six, as showing below Rats of groups 1-5 were exposed daily to blood withdrawal from inner canthus of eyes. The hemoglobin concentration of collected blood samples in heparinized tubes was measured by colorimetric method using commercially available kit (Drabkin's solution). […] Rats of control group were not exposed to any blood withdrawal. After induction of Life-threatening hemorrhagic anemia, all rats were fasted for 6 hours prior their oral administration with different treatments and doses. […] Two control groups were allocated for this pilot experiment; group 5 where rats were exposed to Life-threatening hemorrhagic anemia and treated with the vitamins mixture dissolved with Nano sized magnetite (Ascorbic, folic and nicotinic acids), and group 6 where rats were non-anemic and administered distilled water (Table 1). Rats of different groups were left for 3 days after oral administration of different treatments, fed ad libitum on balanced diet containing iron and clean tap water. Blood samples were collected on 4th and 7th day after dosing and Hb concentration was measured using colorimetric method.

## [Cl][Fe]([Cl])[Cl] [Ferric Chloride]
  Effect on Hb. concentration: corrected the Hb. concentration but achieved neither the levels in Nano-sized magnetite groups nor the level in control non-anemic rats
